Read-outs that look alike come from different tables or passages of the source.
Columns and labels:
[1] = system: phenol oxidizing enzyme from Acremonium murorum; experiment: Dye damage of the phenol oxidizing enzyme/enhancer system on colored swatch P10, consecutive washes in detergent formulation; conditions: enzyme 20 mg/l, enhancer 250 μM, 40° C., 1 hour
Experimental: (§1) A number of colored swatches were washed to assess the degree to which the enzymatic bleach system provokes dye damage. Each swatch was subjected to 5 consecutive washes in a detergent formulation. The closed containers were agitated by putting them in a washing machine. The machine was run for 1 hour with the water heated to 40° C. The pH of the wash solution was set to pH 9. The phenol oxidizing enzyme from Acremonium murorum (see above) was added to the wash solution at 20 mg/l. The enhancers were all dosed at 250 μM.

[2] = system: phenol oxidizing enzyme from Acremonium murorum; experiment: Dye damage of the phenol oxidizing enzyme/enhancer system on dyed swatches, 3 washes in Tris buffer; conditions: Tris buffer pH 8, enzyme 20 mg/l, enhancer 250 μM; for Color difference (ΔE) dyed swatch OO2 after 3 washes: Dyed Monitor OO2, 3 washes; for Color difference (ΔE) dyed swatch OO6 after 3 washes: Dyed Monitor OO6, 3 washes; for Color difference (ΔE) dyed swatch P10 after 3 washes: Dyed Monitor P10, 3 washes; for Color difference (ΔE) dyed swatch PO8 after 3 washes: Dyed Monitor PO8, 3 washes
Experimental: as §1, with “Each swatch was subjected to 5 consecutive washes in a detergent formulation.” left out, “The pH of the wash solution was set to pH 9.” left out

[3] = system: phenol oxidizing enzyme from Acremonium murorum
Description: The bleaching detergent composition of the present invention comprise one or more surfactants, a phenol oxidizing enzyme and a compound which acts as enhancer for the phenol oxidizing enzyme, said composition having an Enhancer Index as herein defined of at least 12. The Enhancer Index is defined for the purpose of this invention as the ratio of the bleach effect on tomato stains to the colored monitor P10 (ΔEtomato stain/ΔEP10 colored monitor) , and is further illustrated in the Examples. […] Preferably, the Enhancer Index is at least 15, and in particular in the range of 15-50.
In order to express the potential of the various enhancers to provoke stain bleaching in the absence of dye damage, the ratio of bleach effect on the tomato stains to the colored monitor P10 was calculated (ΔEtomato stain/ΔEP10 colored monitor) . This ratio, when tomato extract is used as the stain, is referred to as the ‘Ehancer Index’.

[4] = system: phenol oxidizing enzyme from Acremonium murorum; conditions: enhancer 250 μM, detergent formulation 2 g/l, pH 9, 30 min, 30° C.; for Stain bleach performance ΔE, Tomato Extract, With enzyme: enzyme 20 mg/l; for Stain bleach performance ΔE, Tomato Extract, Without enzyme: no enzyme
Experimental: (§2) The potential of the various enhancer to boost the bleach performance of phenol oxidizing enzyme was assessed by washing cotton swatches soiled with tomato stains. Two different bleach monitors were used:
Tomato extract material was prepared by acetone extraction of the chromophores from concentrated tomato paste. For the preparation of the stains, the colored acetone solution was applied to cotton swatches
(§3) The pH of the wash solution was set to pH 9. Purified phenol oxidizing enzyme from Acremonium murorum was added to the wash solution at 20 mg/l. […] The enhancers were all dosed at 250 μM. The wash solution was 50 mM Tris buffer.
(§4) The swatches were washed during 30 minutes, at 30° C. After the wash, the swatches were tumble-dried and the reflectance spectra were measured using a Minolta spectrometer. The color differences between the swatch before and after the wash data were expressed in the CIELAB L*a*b* color space. In this color space, L* indicates lightness and a* and b* are the chromaticity coordinates. Color differences between two swatches are expressed as ΔE, which is calculated from the following equation:
(§5) ΔE={square root over (ΔL^2[…] )}

[5] = system: phenol oxidizing enzyme from Acremonium murorum; experiment: Bleaching of oily tomato stains on cotton swatches by phenol oxidizing enzyme/enhancer system; conditions: enhancer 250 μM, detergent formulation 2 g/l, pH 9, 30 min, 30° C.; for Stain bleach performance ΔE, Oily Tomato Stain, With enzyme: enzyme 20 mg/l; for Stain bleach performance ΔE, Oily Tomato Stain, Without enzyme: no enzyme
Experimental: as §2
Oily tomato stains were prepared by applying heated concentrated tomato paste, to which 5 wt % Soya oil was added, to cotton swatches.
as §3, §4, §5

[6] = ΔE oily tomato stain/ΔE P10, 50 mM Tris buffer solution
[7] = ΔE oily tomato stain/ΔE P10, detergent formulation
[8] = ΔE tomato extract/ΔE P10, 50 mM Tris buffer solution
[9] = ΔE tomato extract/ΔE P10, detergent formulation

Compound	Color difference (ΔE) original P10 swatch vs after 1st wash [1]	Color difference (ΔE) original P10 swatch vs after 2nd wash [1]	Color difference (ΔE) original P10 swatch vs after 3rd wash [1]	Color difference (ΔE) original P10 swatch vs after 4th wash [1]	Color difference (ΔE) original P10 swatch vs after 5th wash [1]	Color difference (ΔE) dyed swatch OO2 after 3 washes [2]	Color difference (ΔE) dyed swatch OO6 after 3 washes [2]	Color difference (ΔE) dyed swatch P10 after 3 washes [2]	Color difference (ΔE) dyed swatch PO8 after 3 washes [2]	Ratio Bleach on Stain Monitor/Dye Damage, Oily Tomato Stain [3, 6]	Ratio Bleach on Stain Monitor/Dye Damage, Oily Tomato Stain [3, 7]	Ratio Bleach on Stain Monitor/Dye Damage, Tomato Extract (Enhancer Index) [3, 8]	Ratio Bleach on Stain Monitor/Dye Damage, Tomato Extract (Enhancer Index) [3, 9]	Stain bleach performance ΔE, Tomato Extract, With enzyme [4]	Stain bleach performance ΔE, Tomato Extract, Without enzyme [4]	Stain bleach performance ΔE, Oily Tomato Stain, With enzyme [5]	Stain bleach performance ΔE, Oily Tomato Stain, Without enzyme [5]
O=S(=O)(Nc1cc(Br)c(O)c(Br)c1Br)c1ccccc1 [Enhancer 3BrphenolBSA, N-(2,3,5-tribromo-4-hydroxyphenyl)-Benzenesulfonamide]	1.69	1.17	1.20	1.55	1.77	0.47	4.45	1.00	1.45	5.62	6.18	19.97	15.18	26.87	12.99	10.95	6.89
O=C(O)CCN1c2ccccc2Sc2ccccc21 [PTP, Phenothiazine-10-propionate]	0.51	0.78	1.79	2.63	3.25	6.34	15.64	9.66	12.57	0.69	2.89	3.59	10.35	33.66	12.00	9.41	8.54
CCn1c(=NN=c2sc3cc(S(=O)(=O)O)ccc3n2CC)sc2cc(S(=O)(=O)O)ccc21 [ABTS]	1.61	1.51	3.29	4.99	6.52	3.47	19.70	12.18	24.02	2.66	4.22	2.93	5.76	37.56	11.12	27.53	8.67
Cc1ccc(S(=O)(=O)Nc2cc(Br)c(O)c(Br)c2Br)cc1 [3Brphenol3MeBSA, N-(2,3,5-tribromo-4-hydroxyphenyl)-4-Methyl Benzenesulfonamide]	0.93	0.98	1.10	1.62	1.86	0.41	4.59	0.96	1.52	6.46	6.29	20.40	14.82	27.57	12.86	11.71	6.87
